From patent US6696607B2 (priority 2000, dated 2004)

Test system: Phytophthora infestans
Assay type: in vivo
Conditions: 63 ppm active ingredient; tomato leaves infected one week after application; assessed after 6 days; untreated plants 100%

CO/N=C(/C(=O)NCCc1ccc(OC)c(OC)c1)c1ccc(Cl)cc1 [comparative active ingredient]
disease level: 40%
